Data set [1] deals with T1, α1G T-type calcium channel (Homo sapiens, UniProt O43497).
T1 construct: host or cells: HEK293
The data set can be described thus: T-type calcium channel activity in HEK293 cells by electrophysiological whole cell patch clamp method. It is filed as cell-based. To be noted: HEK293 cells expressing α1G. On the procedure: The selected compounds were used in a second assay for T-type calcium channel inhibiting activity using electrophysiological whole cell patch clamp method, wherein mammal HEK293 cell lines (originated from human kidney carcinoma cells) which specifically expresses α1G of T-type calcium channel was used for the second assay. […] 10% Fetal bovine serum (FBS) and 1% penicillin/streptomycin (v/v) were added to Dulbecco's modified Eagle's medium (DMEM), to be used as a media solution. The cells were cultured in incubator under the wet condition of 95% air/5% CO2 and temperature of 36.5° C. The media solution was refreshed every 3 or 4 days, and the cells were sub-cultured every week. Only the cells which express α1G T-type calcium channel were cultured using G-418 (0.5 mg/ml) solution. The recording to the cells used in the T-type calcium channel activity analysis was conducted at 2-7 days after the cells were culturing on a cover slip coated with poly-L-lysine (0.5 mg/ml) when conducting every sub-culture. For analysis at a single cell level, the T-type calcium channel current was measured by an electrophysiological whole cell patch clamp method using EPC-9 amplifier (HEKA, German). […] Thereafter, the cell membrane potential was fixed to −100 mV, and then the inward current due to the T-type calcium channel activity when […] to −30 mV (50 ms duration) was measured every 10 seconds. […]

In data set [2] the target is T1, α1G T-type calcium channel. The data set can be described thus: Assay for % inhibiting activity against T-type calcium channel using FDSS6000. Particulars: HEK293, 10 μM; HEK293 cells expressing α1G; Table 4 (Chemical Formula 3 series). It is filed as cell-based. On the procedure: In the present invention, in order to search an efficient inhibitor against T-type calcium channel, a primary assay for T-type calcium channel inhibiting activity was conducted by a high-efficient assay using FDSS6000, wherein mammal HEK293 cell lines (originated from human kidney carcinoma cells) which specifically expresses α1G of T-type calcium channel was used for primary assay. Through the primary assay, compounds which show meaningful inhibition effects were selected. The selected compounds were used in a second assay for T-type calcium channel inhibiting activity using electrophysiological whole cell patch clamp method, wherein mammal HEK293 cell lines (originated from human kidney carcinoma cells) which specifically expresses α1G of T-type calcium channel was used for the second assay.
At 12-24 hours before being used for this assay, cells of HEK293 cell line (α1G cell line: KCTC 10519BP, Korean Collection for Type Cultures), which stably express α1G T-type calcium channel and Kir2.1, were sub-cultured in a poly-L-lysine treated 96-well plate with the density of 4×10^4 per a well using a 96-well cell dispenser (Titertek). On the of assay, the 96-well plate to which the cells were attached were washed three times with HEPES buffer solution (150 mM of NaCl, 5 mM of KCl, 1 mM of MgCl2, 2 mM of CaCl2, 10 mM of HEPES, 10 mM of glucose; pH 7.4) using a 96-well plate automatic washing device (Bio Tek), then reacted with HEPES buffer solution containing 5 μM fluo-3/AM and 0.001% Pluronic F-127 under room temperature for 1 hour, to label with fluorescent dye, and then further washed two times with HEPES buffer solution.
Thereafter, at 10 minutes before the measurement using device FDSS6000, a washing with HEPES buffer solution containing 10 mM CaCl2 was conducted once more, and the final volume was adjusted to 81 μl. Besides the above 96-well plate containing the cells, additional two drug 96-well plates were provided, wherein the 96-well plates contain inhibiting drug and KCl (final concentration: 75 mM) for activating T-type calcium channel, respectively. Since most of cell-based HTS devices are equipped with a liquid application system for injection of drug, but have no liquid sucking system, the inhibiting drug to be tested and KCl were respectively provided at the five-times higher concentration in 10 mM CaCl2 HEPES buffer solution at the amount of 27 μl, diluted five-times at the final cell plate volume of 135 μl, and then used in this test. The concrete method of measurement using FDSS6000 was as follows: After recording the reference value of 20 seconds, the change of intracellular Ca^2+ concentration which induced by treatment of the inhibiting drug to be tested for 75 seconds followed by administration of KCl was measured, wherein the percentage (%) inhibition effect of the test drug, through estimating the area of ratio value of 340/380 in the control without treatment of the test drug as 100%. As a reference drug, mibefradil was used.
For accurate calcium-imagination, the light source of 4 xenon lamps in FDSS6000 were radiated to make the cells exposed selectively to the excitation wavelength (340 nm and 380 nm) by computer-controlled filter wheel. Data was obtained at interval of each 1.23 second. The emitter fluorescence light inflowed through long-pass filter was obtained as an average 340/380 ratio value for each well in the 96-wells by using CCD camera and digital fluorescence analyzer in FDSS6000. All image data and analyses were obtained by using FDSS6000-exclusive program provide from Hamamatsu Photonics.

The structures appear in SMILES notation.

T1 sequence (O43497 whole entry): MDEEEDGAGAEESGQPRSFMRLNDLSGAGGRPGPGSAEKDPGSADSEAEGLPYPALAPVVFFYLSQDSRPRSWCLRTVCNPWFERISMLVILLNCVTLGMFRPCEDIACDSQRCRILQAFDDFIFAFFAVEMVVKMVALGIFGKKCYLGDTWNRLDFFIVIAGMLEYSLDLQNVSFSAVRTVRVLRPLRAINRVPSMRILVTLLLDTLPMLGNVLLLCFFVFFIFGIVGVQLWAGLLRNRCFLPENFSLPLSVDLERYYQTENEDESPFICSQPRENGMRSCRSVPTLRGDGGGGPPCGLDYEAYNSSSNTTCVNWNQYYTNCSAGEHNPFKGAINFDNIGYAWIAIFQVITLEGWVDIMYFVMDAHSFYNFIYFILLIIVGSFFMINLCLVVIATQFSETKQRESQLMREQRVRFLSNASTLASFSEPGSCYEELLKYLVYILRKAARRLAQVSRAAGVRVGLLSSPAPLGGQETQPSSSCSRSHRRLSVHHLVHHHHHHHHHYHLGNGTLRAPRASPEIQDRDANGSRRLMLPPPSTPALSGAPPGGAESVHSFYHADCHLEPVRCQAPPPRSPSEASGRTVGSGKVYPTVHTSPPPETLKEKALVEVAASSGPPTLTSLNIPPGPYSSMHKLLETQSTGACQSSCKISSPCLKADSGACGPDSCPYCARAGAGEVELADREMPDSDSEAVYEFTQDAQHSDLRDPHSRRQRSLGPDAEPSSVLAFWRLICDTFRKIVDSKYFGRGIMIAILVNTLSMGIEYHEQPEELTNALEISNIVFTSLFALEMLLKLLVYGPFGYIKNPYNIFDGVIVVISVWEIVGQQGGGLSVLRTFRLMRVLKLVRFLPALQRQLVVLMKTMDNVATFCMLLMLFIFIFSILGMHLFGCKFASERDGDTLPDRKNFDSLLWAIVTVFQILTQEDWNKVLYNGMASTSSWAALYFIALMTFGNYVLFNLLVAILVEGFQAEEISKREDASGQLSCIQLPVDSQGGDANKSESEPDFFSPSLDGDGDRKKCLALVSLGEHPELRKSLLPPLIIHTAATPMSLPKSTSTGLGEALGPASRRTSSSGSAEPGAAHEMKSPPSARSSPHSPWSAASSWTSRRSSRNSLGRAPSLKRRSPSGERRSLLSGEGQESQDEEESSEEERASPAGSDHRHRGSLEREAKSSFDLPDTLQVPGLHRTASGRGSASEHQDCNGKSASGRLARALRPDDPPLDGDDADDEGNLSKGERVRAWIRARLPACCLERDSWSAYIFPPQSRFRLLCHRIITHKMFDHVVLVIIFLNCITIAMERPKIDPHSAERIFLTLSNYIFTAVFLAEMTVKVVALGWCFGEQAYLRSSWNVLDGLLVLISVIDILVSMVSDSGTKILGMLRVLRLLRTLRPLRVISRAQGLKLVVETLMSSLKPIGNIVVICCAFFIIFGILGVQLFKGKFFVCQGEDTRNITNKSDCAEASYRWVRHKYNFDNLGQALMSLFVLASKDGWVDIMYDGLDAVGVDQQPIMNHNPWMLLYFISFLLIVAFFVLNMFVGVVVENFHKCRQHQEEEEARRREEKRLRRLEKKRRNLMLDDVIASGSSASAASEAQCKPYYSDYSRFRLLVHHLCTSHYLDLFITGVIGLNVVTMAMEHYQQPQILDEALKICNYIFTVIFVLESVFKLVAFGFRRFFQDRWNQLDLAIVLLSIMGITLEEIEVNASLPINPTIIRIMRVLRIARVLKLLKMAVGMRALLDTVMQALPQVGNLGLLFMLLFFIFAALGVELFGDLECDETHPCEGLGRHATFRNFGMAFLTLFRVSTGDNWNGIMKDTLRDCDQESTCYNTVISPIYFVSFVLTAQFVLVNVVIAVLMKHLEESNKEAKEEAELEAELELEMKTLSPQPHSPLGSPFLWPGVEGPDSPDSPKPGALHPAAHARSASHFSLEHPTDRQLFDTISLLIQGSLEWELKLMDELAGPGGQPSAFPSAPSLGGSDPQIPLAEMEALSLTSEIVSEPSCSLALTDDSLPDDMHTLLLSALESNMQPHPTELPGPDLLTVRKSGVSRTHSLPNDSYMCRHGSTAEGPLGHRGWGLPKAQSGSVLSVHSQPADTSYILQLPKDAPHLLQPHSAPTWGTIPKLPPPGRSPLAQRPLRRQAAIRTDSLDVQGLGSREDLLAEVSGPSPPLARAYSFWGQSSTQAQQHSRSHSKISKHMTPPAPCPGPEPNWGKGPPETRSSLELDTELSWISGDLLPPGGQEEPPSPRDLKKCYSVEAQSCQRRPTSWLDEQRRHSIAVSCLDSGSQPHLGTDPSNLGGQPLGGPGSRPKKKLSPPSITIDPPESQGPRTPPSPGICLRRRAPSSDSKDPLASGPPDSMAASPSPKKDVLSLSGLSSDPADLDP

Regarding `NC(N)=Nc1nc(CC(=O)Nc2cc(Cl)cc(Cl)c2)cs1`, in data set [1], the IC50 is 310 ± 220 nM.

Take `Br.NC(N)=Nc1nc(-c2ccccc2)cs1` [KHG24380, 2-(4-phenylthiazole-2-yl)guanidine hydrobromide]: the melting point turned out to be 209.5 °C. In data set [2], the inhibition at 10 µM is 19.6%.

The molecule `Br.NC(N)=Nc1nc(-c2ccc(Br)cc2)cs1` [KHG24381, 2-(4-(4-bromophenyl)thiazole-2-yl)guanidine hydrobromide] showed a melting point of 278.5 °C. The inhibition at 10 µM in data set [2] is 20.8%.

`Br.Cc1cccc(-c2csc(N=C(N)N)n2)c1` [KHG24382, 2-(4-m-tolylthiazole-2-yl)guanidine hydrobromide]: the melting point came to 232.4 °C. For the same molecule, in data set [2], the inhibition at 10 µM was 22.3%.

Take `Br.NC(N)=Nc1nc(-c2cccc(F)c2)cs1` [KHG24383, 2-(4-(3-fluorophenyl)thiazole-2-yl)guanidine hydrobromide]: the melting point is 242.1 °C. For the same molecule, the inhibition at 10 µM in data set [2] was found to be 21.6%.

Molecule `Br.NC(N)=Nc1nc(-c2ccccc2F)cs1` [KHG24384, 2-(4-(2-fluorophenyl)thiazole-2-yl)guanidine hydrobromide] registered a melting point of 229.6 °C. Further, the inhibition at 10 µM in data set [2] came out at 20.3%.

`Br.NC(N)=Nc1nc(-c2cccc(C(F)(F)F)c2)cs1` [KHG24385, 2-(4-(3-(trifluoromethyl)phenyl)thiazole-2-yl)guanidine hydrobromide] yielded a melting point of 224.8 °C. For the same molecule, in data set [2], the inhibition at 10 µM came out at 15.8%.

In turn, `Br.NC(N)=Nc1nc(-c2cccc(Br)c2)cs1` [KHG24386, 2-(4-(3-bromophenyl)thiazole-2-yl)guanidine hydrobromide] yielded a melting point of 179.8 °C. Also, in data set [2], the inhibition at 10 µM turned out to be 10.9%.

`Br.CCc1ccc(-c2csc(N=C(N)N)n2)cc1` [KHG24387, 2-(4-(4-ethylphenyl)thiazole-2-yl)guanidine hydrobromide] gave a melting point of 234.8 °C. Moreover, the inhibition at 10 µM in data set [2] is 17.1%.

In turn, `Br.NC(N)=Nc1nc(-c2cccc(Cl)c2)cs1` [KHG24388, 2-(4-(3-chlorophenyl)thiazole-2-yl)guanidine hydrobromide] came in with a melting point of 210.4 °C. For the same molecule, the inhibition at 10 µM in data set [2] came out at 10.8%.

`Br.NC(N)=Nc1nc(-c2ccc(Cl)c(Cl)c2)cs1` [KHG24390, 2-(4-(3,4-dichlorophenyl)thiazole-2-yl)guanidine hydrobromide] returned a melting point of 256.3 °C. The inhibition at 10 µM in data set [2] amounted to 7.32%.

Consider `Br.NC(N)=Nc1nc(-c2cc(F)ccc2F)cs1` [KHG24391, 2-(4-(2,5-difluorophenyl)thiazole-2-yl)guanidine hydrobromide], for which the melting point is 252.1 °C. In data set [2], the inhibition at 10 µM was found to be 20.8%.

As for `NC(N)=Nc1nc(CC(=O)Nc2cc(C(F)(F)F)cc(C(F)(F)F)c2)cs1` [drawing 11], the IC50 in data set [1] is 780 ± 80 nM.

(Values after US8143296B2, “Thiazole-based compound and inhibitor of T-type calcium channel containing the same” (Korea Institute of Science and Technology, priority 2006, dated 2012).)
